Paper PMC12516379, “Rotamer-Controlled Self-Immolative Linkers Enable Tunable Release of Neurosteroid Oxime Prodrugs” (ACS Medicinal Chemistry Letters, 2025)

How the values were obtained:
[1] = Stability in acetate buffer pH 5.0 at room temperature via HPLC (UV); type: physicochemical
Method: (§1) Stability studies were conducted in PBS and acetate buffer utilizing high performance liquid chromatography for potential drug storage considerations. […]
(§2) All experiments were performed in duplicate and results are presented as the average of two experimental replicates.
(§3) 1.1 Aqueous Stability in PBS and Acetate Buffer via HPLC
(§4) Material and Instrumentation
(§5) HPLC grade acetonitrile (MeCN) […] HPLC grade water (H 2O), and formic acid (FA) were purchased from Fisher Scientific.
(§6) Puradisc 4 mm PTFE (0.45 μm) syringe filters from Cytiva. Gibco ® Dulbecco’s phosphate-buffered saline (DPBS 1X, no calcium, no magnesium, pH = 7.03) and acetate buffer (pH = 5.0, 10 mM) were purchased directly from Thermo Fisher Scientific and Cytiva, respectively.
(§7) Aqueous stability experiments were performed on an Agilent 1100 HPLC equipped with an Agilent G1315B diode array detector, an Agilent G1316A heated column compartment, and a Zorbax Eclipse XDB-C18 (4.6 x 150 mm, 5 μm) column.
(§8) Procedure for Aqueous Stability Experiments
(§9) Each sample was first weighed out in two separate 2.0 mL vials using an analytical balance.
(§10) Unless otherwise specified, the test compounds were then dissolved in the aqueous media (PBS or acetate buffer) at a standard concentration of 1 mg/mL. All mixtures were subsequently sonicated for approximately 30 sec. […]
(§11) min), precipitates observed in sample solutions were filtered with a PTFE syringe filter prior to analysis. Immediately after sample preparation, injection by the HPLC autosampler was performed, which was recorded as the initial time point (t = 0 min). Solutions were then kept in the autosampler at RT and reinjected at designated intervals without additional filtration or sample modification. Remaining prodrug was defined by the area under the curve (AUC) at 254 nm. Aqueous stability was ascertained by calculating the percentage of the parent compound remaining after each time point. Linear regression of the time (x-axis) vs. ln(%remaining) (y-axis) plot afforded the rate constant k (slope = -k). Pseudo first-order half-lives were then calculated by the following equation: t1/2 = 0.693/k.

[2] = Stability in PBS at room temperature via HPLC (UV); type: physicochemical; details: phosphate-buffered saline (DPBS)
Method: as §1, §2, §3, §4, §5, §6, §7, §8, §9, §10, §11

[3] = PBS stability assay at 37 °C via LC-MS/MS; type: physicochemical; details: 37 °C; for half-life at 3 µM: pH 7.03, PBS
[4] = Plasma stability assay at 37 °C via LC-MS/MS, human plasma; type: in vitro ADME; details: for half-life at 3 µM: human, plasma;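 for all read-outs here: prodrugs at 3 µM incubated in human plasma at 37 °C, intact prodrug quantified by LC-MS/MS over time, values are means of duplicate runs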
[5] = Plasma stability assay via LC-MS/MS, rat plasma; type: in vitro ADME; details: read-out: t1/2 in rat plasma (Table S19) (converted)
Method: (§12) Building on our observation that rotamer control in the steric series can be modulated by enzymatic stabilization or activation, we next evaluated whether this effect was species dependent. To investigate this, we performed comparative stability studies by incubating select prodrugs (20a, 20b, 20l and 20t; Figure ) in mouse and rat plasma – two of the most commonly used preclinical species in drug development. This approach allowed us to assess the potential influence of species-specific enzymes on rotamer equilibria and, by extension, prodrug activation rates. The self-immolation profiles for the sterically tuned linker series (20a–b) reveal discernible, species-dependent differences prodrug stability. […] While the precise biochemical drivers remain unclear, this observation warrants further investigation beyond the scope of this work.
(§13) 1.2 Stability in Plasma and PBS via LCMS
(§14) Procaine (positive control) was purchased from Sigma-Aldrich. HPLC grade MeCN, MeOH, H2O, and FA were purchased from Fischer Scientific. Human plasma (cat. No. […]- […]
(§15) 0102242) were obtained from BIOIVT. DPBS 1X (no calcium, no magnesium, pH = 7.03) was purchased from Thermo Fischer Scientific. Stock solutions were prepared in 100% DMSO, and suitable dilutions of target analytes were prepared in 0.1% FA /MeCN for method development.
(§16) For PBS assay Gibco® Dulbecco’s phosphate-buffered saline (DPBS 1X, no calcium, no magnesium, pH = 7.03) was utilized. All experiments were performed in duplicate and results are presented as the average of two experimental replicates.
(§17) Procedure for Plasma Stability Assay
(§18) Test compounds and positive control (i.e. procaine) were dissolved in DMSO to make a 10 mM stock solution and subsequently diluted to 500 μM in 50% MeCN and PBS. This intermediate stock solution was prepared and added immediately prior to the start of each test compound experiment. Plasma was thawed at ambient temperature and aliquoted (663.0 μL) into 1.5 mL Eppendorf tubes. Plasma was incubated at 37 °C for 10 minutes in an incubator shaker at 150 rpm, and the reactions were initiated by addition of the test compound or positive control (4.0 µL, 3 μM). The spiked plasma samples were incubated at 37 °C. For designated time points, 75 µL aliquots were removed from the incubation mixture and immediately quenched in 150 µL of MeCN/0.1%FA with internal standard (ISTD, 2 µM d 5-7-ethoxy coumarin). […] The supernatant was transferred to an LC-MS vial and analyzed by LC/MS-MS. […]
(§19) LC–MS/MS analysis was performed using an Agilent 1260 Infinity II HPLC, coupled with an Agilent G6460 triple quadrupole mass spectrometer (Agilent Technologies, USA). All the data were acquired employing Agilent 6460 Quantitative Analysis data processing software. […]

[6] = Plasma stability assay via LC-MS/MS, mouse plasma; type: in vitro ADME; details: read-out: t1/2 in mouse plasma (Table S20) (converted)
Method: as §12, §13, §14, §15, §16, §17, §18, §19

[7] = Aqueous solubility by visual inspection in acetate buffer (pH 5); details: sodium acetate buffer, pH 5, aqueous buffer, thermodynamic from solid
Method: For the solubility assessment, acetate buffer (pH 5) was selected as the media of choice to ensure prodrug stability during analysis.
High aqueous solubility was determined by visual inspection of 5 mg solid material in 0.5 mL
sodium acetate buffer solution. This media was selected to ensure stability of prodrugs during
dissolution in 50 mg/mL aqueous media.

[8] = Formation of progesterone oxime 3 from prodrugs in human plasma at 37 °C over 2 h; type: in vitro ADME; details: 2 h period
Method: Given the greater biological relevance of plasma, we focused on quantifying the formation of progesterone and allopregnanolone oxime in human plasma at 37 °C over a 2 h period. Results for selected progesterone prodrugs are presented in Figure A–C, illustrating the broad range of plasma cleavage rates as a function of promoiety design (see Figure S13 in Supporting Information for complete data set). Complete stability data for synthesized allopregnanolone prodrugs (Figures S18–S20) are provided in the Supporting Information. Given that their trends closely paralleled the progesterone series, they were not discussed in detail in the main text. […] This unexpected result prompted further investigation using computational modeling, described in the following section. […] Higher pK a values were associated with faster and more complete oxime formation, likely due to enhanced H-bonding which could stabilize the reactive syn-conformer. […] For the heterocyclic pyrrolidine and angle-strained series (Figure C), the release rates closely matched the experimentally determined prodrug half-lives (Table ), which were shorter in human plasma than in PBS. […] Although both 20s and 20t are capable of adopting the reactive syn-rotamer, their self-immolation reactivity diverged due to differences in linker geometry. The cyclopropane in 20s induces angle strain that hinders nucleophilic attack, rendering the compound stable under both PBS and plasma conditions. […] This intriguing result warrants further investigation, with follow-up studies currently in progress. Finally, the nucleophilic capacity of the amine tethers in prodrugs 20w–20z were evaluated based on their ability to cyclize in plasma, as detailed in the Supporting Information Figure S13.
as §13, §14, §15, §16, §17
Test compounds and positive control (i.e. procaine) were dissolved in DMSO to make a 10 mM stock solution and subsequently diluted to 500 μM in 50% MeCN and PBS. […] The supernatant was transferred to an LC-MS vial and analyzed by LC/MS-MS. […]

[9] = pH 5, acetate buffer pH 5.0, RT, 1 mg/mL, HPLC 254 nm, read-out: t1/2 in acetate buffer at RT (Tables S5-S8) (converted)
[10] = pH 5, acetate buffer pH 5.0, rt, HPLC (UV), read-out: Half-life (t½) pH 5.0 rt (converted)
[11] = pH 5, acetate buffer pH 5.0, rt, read-out: t½: pH 5.0, rt (Table S23) (converted)
[12] = pH 7.03, DPBS pH 7.03, RT, 1 mg/mL, HPLC 254 nm, read-out: t1/2 in PBS buffer at RT (Tables S1-S4) (converted)
[13] = pH 7.03, PBS, rt, HPLC (UV), read-out: Half-life (t½) PBS rt (converted)
[14] = pH 7.03, PBS, rt, read-out: t½: PBS, rt (Table S23) (converted)

SMILES: CNCCN(C(=O)O/N=C(\C)[C@H]1CC[C@H]2[C@@H]3CCC4=CC(=O)CC[C@]4(C)[C@H]3CC[C@]12C)C1CC1.O=C(O)C(F)(F)F [20b]
- half-life at 1 mg/mL [1, 9]: > 168 h
- half-life at 1 mg/mL [1, 10]: > 168 h
- half-life at 1 mg/mL [1, 11]: > 168 h
- half-life at 1 mg/mL [2, 12]: 28.16 ± 0.04 h
- half-life at 1 mg/mL [2, 13]: 28.2 h
- half-life at 1 mg/mL [2, 14]: 28.2 h
- PBS, 37 °C %rem. at 2h (Table S23) ([3]; PBS, 2 h): 68%
- half-life at 3 µM ([3]; phosphate-buffered saline (DPBS), 3 µM, LC-MS/MS, read-out: t1/2 in PBS at 37 °C (Tables S14-S17) (converted)): 4.5 h
- half-life at 3 µM ([3]; phosphate-buffered saline (DPBS), LC-MS/MS, read-out: Half-life (t½) PBS 37°C (converted)): 4.5 h
- half-life at 3 µM ([3]; phosphate-buffered saline (DPBS), read-out: PBS, 37 °C t½ (Table S23) (converted)): 4.5 h
- half-life at 3 µM ([3]; phosphate-buffered saline (DPBS), read-out: t1/2 (h) PBS, 37 °C (Tables S25, S26) (converted)): 4.5 h
- remaining at 2 h, 3 µM ([3]; phosphate-buffered saline (DPBS), pH 7.03, PBS, 2 h, read-out: % Remaining @ 2h, PBS, 37 °C (Tables S25, S26)): 68%
- Plasma, 37 °C %rem. at 2h (Table S23) ([4]; 2 h): 31%
- half-life at 3 µM ([4]; 3 µM, LC-MS/MS, read-out: t1/2 in human plasma at 37 °C (Tables S10-S13, S18) (converted)): 1.27 h
- half-life at 3 µM ([4]; LC-MS/MS, read-out: Half-life (t½) Plasma 37°C (converted)): 1.27 h
- half-life at 3 µM ([4]; read-out: Plasma, 37 °C t½ (Table S23) (converted)): 1.27 h
- half-life at 3 µM [5]: 2.3 h
- half-life at 3 µM [6]: 5.4 h
- solubility [7]: > 10000 µg/mL

SMILES: CNCCN(CCN(C)C)C(=O)O/N=C(\C)[C@H]1CC[C@H]2[C@@H]3CCC4=CC(=O)CC[C@]4(C)[C@H]3CC[C@]12C [20g]
- half-life at 1 mg/mL [1, 9]: 75.8 h
- half-life at 1 mg/mL [1, 10]: 75.8 h
- half-life at 1 mg/mL [1, 11]: 75.8 h
- half-life at 1 mg/mL [2, 12]: 2.17 ± 0.02 h
- half-life at 1 mg/mL [2, 13]: 2.17 h
- half-life at 1 mg/mL [2, 14]: 2.17 h
- Formation/release of oxime 3 in human plasma, in words [8]: rapid, first-order release
- solubility [7]: < 10000 µg/mL
